# Results published in PMC11650849, “Brain endothelial permeability, transport, and flow assessed over 10 orders of magnitude using the in situ brain perfusion technique” (Fluids and Barriers of the CNS, 2024).
# Like-named read-outs stand apart in the source and are kept apart here.
# Legend:
# [1] = Neutral fraction at pH 7.4 calculated from pKa; assay type: physicochemical; settings: neutral fraction at perfusion fluid pH 7.40, calculated from pKa
# [2] = rat, in vivo
# [3] = for Brain Kin: calculated at brain blood flow […] and rat serum fu; for Extraction (unbound) / Brain vascular extraction (total): calculated at brain blood flow […]; for Extraction (unbound): free drug; for Brain vascular extraction (total): with rat serum fu
# [4] = cited from earlier work
# [5] = cited from earlier work; for Log Poct: octanol partition coefficient
# [6] = In situ rat brain perfusion (brain uptake Kin, extraction E, BBB PS)
# [7] = ref Hansch et al. [123], Avdeef [46] or other sources
# [8] = facilitated nutrients, transporter not given
structure (smiles),measurement,setting,value
CC(N)=O [Acetamide],fn (%),[1],100%
Cc1nnc2n1-c1ccc(Cl)cc1C(c1ccccc1)=NC2 [Alprasolam],fn (%),[1],100%
CCCCO [Butanol],fn (%),[1],100%
same,Pc,[2],1470 ×10⁻⁶ cm/s
same,PcS,[2],0.15 mL/s/g
same,PoS,[2],0.13 mL/s/g
same,Po,[2],1270 ×10⁻⁶ cm/s
same,Brain Kin,[3],0.0229 mL/s/g
same,Extraction (unbound),[3],99.8%
same,Brain vascular extraction (total),[3],97.5%
same,Peak flow rate for 90% E,[3]; protein-free physiologic saline pH 7.4,3.8 mL/min/g
same,"Maximal flow—90% extraction, PcS/2.3","[3]; protein-free saline, pH 7.4",0.064 mL/s/g
same,"fu,.p",[4]; rat,0.60
C[C@]12CC[C@H](O)CC1=CC[C@@H]1[C@@H]2CC[C@]2(C)C(=O)CC[C@@H]12 [DHEA],fn (%),[1],100%
same,Log Poct,[5]; [7],3.00
same,Log Doct pH=7.4,[5]; [7],3.00
same,"fu,.p",[4]; rat in vivo measurements,0.05
CN(C)CCOC(c1ccccc1)c1ccccc1 [Diphenhydramine],fn (%),[1],1.96%
CCO [Ethanol],Brain Kin,[3],0.0195 mL/s/g
same,Extraction (unbound),[3],83.0%
same,Brain vascular extraction (total),[3],81.4%
same,"fu,.p",[4]; rat,0.95
CCCCCCO [Hexanol],fn (%),[1],100%
same,Extraction (unbound),[3],99.9%
same,Brain vascular extraction (total),[3],89.1%
same,"fu,.p",[4]; rat in vivo measurements,0.30
O=C(O)c1cc(=O)c2ccccc2[nH]1 [Kynurenic acid],fn (%),[1],4.6E−7%
same,Log Pc,[2]; pH 7.4,−5.92
same,Log PoS,[2]; pH 7.4,0.42
same,PcS,[2]; pH 7.4,0.00012 mL/s/g
same,PoS,[2]; pH 7.4,2.60 mL/s/g
same,Log Po,[2]; pH 7.4,−1.58
same,Po,[2]; pH 7.4,26000 ×10⁻⁶ cm/s
same,"fu,.p",[4]; rat in vivo measurements,1.00
N[C@@H](CCC(=O)O)C(=O)O [L-Glutamate],Log PS,[6]; [8],−3.82
same,PS,[6]; [8],0.000151 mL/s/g
CC(=O)N[C@@H](CS)C(=O)O [N-acetyl-cysteine],Extraction (unbound),[3],7.60E-05%
same,Brain vascular extraction (total),[3],7.60E-05%
same,Log Doct pH=7.4,[5],−3.70
same,"fu,.p",[4]; rat in vivo measurements,1.00
same,Log Pc,[6]; Pc in cm/s,−7.74
same,Log Po,[6]; Po in cm/s,−7.74
same,Log PoS,[6]; PoS in mL/s/g,−5.74
same,Pc,[6]; S assumed 100 cm^2/g,0.0182 ×10⁻⁶ cm/s
same,PoS,[6]; brain vascular intrinsic PoS,1.82e-06 mL/s/g
same,PcS,"[6]; cerebral cortex, flow 0.1–[…], S = physiological saline, AB = artificial blood",1.82e-06 mL/s/g
COc1ccc2cc([C@H](C)C(=O)O)ccc2c1 [Naproxen],fn (%),[1],0.05%
NC(=O)c1cccnc1 [Nicotinamide],fn (%),[1],100%
same,Log Poct,[5]; [7],−0.34
same,Log Doct pH=7.4,[5]; [7],−0.34
O=C1Nc2ccc(Cl)cc2C(c2ccccc2)=NC1O (stereo not shown) [Oxazepam],fn (%),[1],100%
same,"fu,.p",[4]; rat,0.17
CCCO [Propanol],fn (%),[1],100%
same,"fu,.p",[4]; rat,0.74
O=C(O)c1cccnc1C(=O)O [Quinolinic acid],Log Pc,[2]; pH 7.4,−7.77
same,Log PoS,[2]; pH 7.4,−3.13
same,Pc,[2]; pH 7.4,0.017 ×10⁻⁶ cm/s
same,PcS,[2]; pH 7.4,1.7e-06 mL/s/g
same,PoS,[2]; pH 7.4,0.000743 mL/s/g
same,Log Po,[2]; pH 7.4,−5.13
same,Po,[2]; pH 7.4,7.43 ×10⁻⁶ cm/s
same,Brain Kin,[3],0.00019 mL/s/g
same,Extraction (unbound),[3],0.01%
same,Brain vascular extraction (total),[3],0.0071%
same,Log Poct,[5]; [7],−1.44
same,Log Doct pH=7.4,[5]; [7],−4.08
same,"fu,.p",[4]; rat in vivo measurements,1.00
CN1C(=O)C(O)N=C(c2ccccc2)c2cc(Cl)ccc21 (stereo not shown) [Temazepam],fn (%),[1],100%
same,"fu,.p",[4]; rat,0.18
Cc1nnc2n1-c1ccc(Cl)cc1C(c1ccccc1Cl)=NC2 [Triasolam],fn (%),[1],100%
NC(N)=O [Urea],fn (%),[1],100%
same,Log Poct,[5]; [7],−1.66
same,Log Doct pH=7.4,[5]; [7],−1.66
same,"fu,.p",[4]; rat in vivo measurements,1.00
O [Water],BBB PcS,[2],0.029 mL/s/g
same,"Brain Equilibration t1/2, Measured",[2],60 s
same,Kin Underestimate (linear regression vs two compartment model),[2],54%
same,Log Pc,[2],−3.54
same,Log PoS,[2],−1.54
same,Pc,[2],287 ×10⁻⁶ cm/s
same,PcS,[2],0.029 mL/s/g
same,PoS,[2],0.0287 mL/s/g
same,Log Po,[2],−3.54
same,Po,[2],287 ×10⁻⁶ cm/s
same,"Brain Equilibration t1/2, Calculated",[3]; plasma,48.6 s
same,Log Poct,[5]; [7],−0.59
same,Log Doct pH=7.4,[5]; [7],−0.59
same,"fu,.p",[4]; rat in vivo measurements,1.00
